Experimental data published in the NIST ThermoML archive (doi:10.1021/je034087q).

Experiment: xn = mol fraction of the nth substance listed
Settings: 323.15 K

CCCCC [pentane] + O=C=O
Settings	mass density [kg/m3]
9400 kPa, Fluid (supercritical or subcritical phases), x2 = 0.939	522
9410 kPa, Fluid (supercritical or subcritical phases), x2 = 0.916	590
9440 kPa, Fluid (supercritical or subcritical phases), x2 = 0.87	630
9480 kPa, Fluid (supercritical or subcritical phases), x2 = 0.901	601
9510 kPa, Fluid (supercritical or subcritical phases), x2 = 0.939	534
9550 kPa, Fluid (supercritical or subcritical phases), x2 = 0.791	688
9560 kPa, Fluid (supercritical or subcritical phases), x2 = 0.671	726
9600 kPa, Fluid (supercritical or subcritical phases), x2 = 0.901	607
9630 kPa, Fluid (supercritical or subcritical phases), x2 = 0.916	603
9630 kPa, Fluid (supercritical or subcritical phases), x2 = 0.939	545
9670 kPa, Fluid (supercritical or subcritical phases), x2 = 0.87	638
9740 kPa, Fluid (supercritical or subcritical phases), x2 = 0.214	631
9740 kPa, Fluid (supercritical or subcritical phases), x2 = 0.901	613
9790 kPa, Fluid (supercritical or subcritical phases), x2 = 0.939	558
9920 kPa, Fluid (supercritical or subcritical phases), x2 = 0.901	619
9940 kPa, Fluid (supercritical or subcritical phases), x2 = 0.916	615
9970 kPa, Fluid (supercritical or subcritical phases), x2 = 0.939	572
10000 kPa, Fluid (supercritical or subcritical phases), x2 = 0.901	622
10010 kPa, Fluid (supercritical or subcritical phases), x2 = 0.87	645
10080 kPa, Fluid (supercritical or subcritical phases), x2 = 0.901	626
10160 kPa, Fluid (supercritical or subcritical phases), x2 = 0.901	628
10170 kPa, Fluid (supercritical or subcritical phases), x2 = 0.939	586
10240 kPa, Fluid (supercritical or subcritical phases), x2 = 0.36	651
10270 kPa, Fluid (supercritical or subcritical phases), x2 = 0.901	633
10290 kPa, Fluid (supercritical or subcritical phases), x2 = 0.791	697
10300 kPa, Fluid (supercritical or subcritical phases), x2 = 0.916	628
10420 kPa, Fluid (supercritical or subcritical phases), x2 = 0.87	654
10420 kPa, Fluid (supercritical or subcritical phases), x2 = 0.901	637
10440 kPa, Fluid (supercritical or subcritical phases), x2 = 0.939	600
10620 kPa, Fluid (supercritical or subcritical phases), x2 = 0.901	642
10710 kPa, Fluid (supercritical or subcritical phases), x2 = 0.671	734
10730 kPa, Fluid (supercritical or subcritical phases), x2 = 0.916	642
10760 kPa, Fluid (supercritical or subcritical phases), x2 = 0.901	647
10790 kPa, Fluid (supercritical or subcritical phases), x2 = 0.939	616
10850 kPa, Fluid (supercritical or subcritical phases), x2 = 0.87	661
10950 kPa, Fluid (supercritical or subcritical phases), x2 = 0.901	652
11040 kPa, Fluid (supercritical or subcritical phases), x2 = 0.791	703
11060 kPa, Fluid (supercritical or subcritical phases), x2 = 0.214	634
11220 kPa, Fluid (supercritical or subcritical phases), x2 = 0.901	656
11230 kPa, Fluid (supercritical or subcritical phases), x2 = 0.36	654
11250 kPa, Fluid (supercritical or subcritical phases), x2 = 0.939	635
11260 kPa, Fluid (supercritical or subcritical phases), x2 = 0.916	657
11320 kPa, Fluid (supercritical or subcritical phases), x2 = 0.939	639
11440 kPa, Fluid (supercritical or subcritical phases), x2 = 0.901	661
11450 kPa, Fluid (supercritical or subcritical phases), x2 = 0.87	670
11610 kPa, Fluid (supercritical or subcritical phases), x2 = 0.901	666
11890 kPa, Fluid (supercritical or subcritical phases), x2 = 0.901	672
11910 kPa, Fluid (supercritical or subcritical phases), x2 = 0.791	713
11930 kPa, Fluid (supercritical or subcritical phases), x2 = 0.916	672
11970 kPa, Fluid (supercritical or subcritical phases), x2 = 0.87	678
11980 kPa, Fluid (supercritical or subcritical phases), x2 = 0.671	740
12080 kPa, Fluid (supercritical or subcritical phases), x2 = 0.901	675
12440 kPa, Fluid (supercritical or subcritical phases), x2 = 0.901	681
12460 kPa, Fluid (supercritical or subcritical phases), x2 = 0.36	656
12560 kPa, Fluid (supercritical or subcritical phases), x2 = 0.214	638
12580 kPa, Fluid (supercritical or subcritical phases), x2 = 0.87	687
12760 kPa, Fluid (supercritical or subcritical phases), x2 = 0.901	686
12790 kPa, Fluid (supercritical or subcritical phases), x2 = 0.916	687
13000 kPa, Fluid (supercritical or subcritical phases), x2 = 0.901	690
13060 kPa, Fluid (supercritical or subcritical phases), x2 = 0.791	721
13280 kPa, Fluid (supercritical or subcritical phases), x2 = 0.901	695
13290 kPa, Fluid (supercritical or subcritical phases), x2 = 0.87	695
13530 kPa, Fluid (supercritical or subcritical phases), x2 = 0.901	698
13560 kPa, Fluid (supercritical or subcritical phases), x2 = 0.36	659
13800 kPa, Fluid (supercritical or subcritical phases), x2 = 0.671	749
13800 kPa, Fluid (supercritical or subcritical phases), x2 = 0.901	701
13860 kPa, Fluid (supercritical or subcritical phases), x2 = 0.214	640
13860 kPa, Fluid (supercritical or subcritical phases), x2 = 0.916	705
14040 kPa, Fluid (supercritical or subcritical phases), x2 = 0.87	704
14050 kPa, Fluid (supercritical or subcritical phases), x2 = 0.901	705
14440 kPa, Fluid (supercritical or subcritical phases), x2 = 0.901	712
14470 kPa, Fluid (supercritical or subcritical phases), x2 = 0.916	715
14510 kPa, Fluid (supercritical or subcritical phases), x2 = 0.791	732
14700 kPa, Fluid (supercritical or subcritical phases), x2 = 0.901	714
14730 kPa, Fluid (supercritical or subcritical phases), x2 = 0.87	713
14810 kPa, Fluid (supercritical or subcritical phases), x2 = 0.36	662
15220 kPa, Fluid (supercritical or subcritical phases), x2 = 0.214	642
Liquid, Other PVT measurement, x2 = 0.214	603
Liquid, Other PVT measurement, x2 = 0.36	632
Liquid, Other PVT measurement, x2 = 0.671	702
Liquid, Other PVT measurement, x2 = 0.791	651
Liquid, Other PVT measurement, x2 = 0.87	573
Liquid, Other PVT measurement, x2 = 0.901	511
